From patent US6525001B1, “Substituted pyrimidine and pyridine herbicides” (Mid-American Commercialization Corporation, priority 1997, dated 2003)

How the values were obtained:
Format in all cases: in vivo
[1] = tested on: velvetleaf (Abutilon theophrasti); assay: Test C; conditions: PREEMERGENCE
[2] = tested on: purple nutsedge (Cyperus rotundus); assay: Test C; parameters: key: 0 was no effect; 100 was complete control; conditions: PREEMERGENCE
[3] = tested on: johnsongrass (Sorghum halepense); assay: Test C; conditions: PREEMERGENCE
[4] = tested on: hairy beggarticks (Bidens pilosa); assay: Test C; parameters: key: 0 was no effect; 100 was complete control; conditions: PREEMERGENCE
[5] = tested on: barnyardgrass (Echinochloa crus-galli); assay: Test C; parameters: key: 0 was no effect; 100 was complete control; conditions: PREEMERGENCE
[6] = tested on: ivyleaf morningglory (Ipomoea hederacea); assay: Test C; parameters: key: 0 was no effect; 100 was complete control; conditions: PREEMERGENCE
[7] = tested on: purple nutsedge (Cyperus rotundus); assay: Test E pre-/postemergence/post directed; conditions: PREEMERGENCE
Method in brief: (§1)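 Three application modes in greenhouse pots: preemergence soil spray, postemergence foliar spray at two to four leaves, and post-directed spray to soil and plant base. Ratings of 0–100 injury, assigned visually against untreated controls 13 to 21 days later.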

[8] = tested on: large crabgrass (Digitaria sanguinalis); assay: Test E pre-/postemergence/post directed; conditions: PREEMERGENCE
Method in brief: as §1

[9] = tested on: common groundsel (Senecio vulgaris); assay: Test E pre-/postemergence/post directed; conditions: PREEMERGENCE, Rate 32 g/ha
Method in brief: as §1

[10] = tested on: surinam grass (Brachiaria decumbens); assay: Test E pre-/postemergence/post directed; conditions: PREEMERGENCE
Method in brief: as §1

[11] = tested on: sandbur (Cenchrus echinatus); assay: Test E pre-/postemergence/post directed; conditions: PREEMERGENCE
Method in brief: as §1

[12] = tested on: Spanishneedles (Bidens bipinnata); assay: Test E pre-/postemergence/post directed; conditions: PREEMERGENCE
Method in brief: as §1

[13] = tested on: johnson grass (Sorghum halepense); assay: Test E pre-/postemergence/post directed; conditions: PREEMERGENCE
Method in brief: as §1

[14] = tested on: common ragweed (Ambrosia elatior); assay: Test E pre-/postemergence/post directed; conditions: PREEMERGENCE
Method in brief: as §1

[15] = tested on: pitted morningglory (Ipomoea lacunosa); assay: Test E pre-/postemergence/post directed; conditions: PREEMERGENCE
Method in brief: as §1

[16] = tested on: bermudagrass (Cynodon dactylon); assay: Test E pre-/postemergence/post directed; conditions: PREEMERGENCE
Method in brief: as §1

[17] = tested on: itchgrass (Rottboellia exaltata); assay: Test E pre-/postemergence/post directed; conditions: PREEMERGENCE
Method in brief: as §1

[18] = tested on: alexandergrass (Brachiaria plantaginea); assay: Test E pre-/postemergence/post directed; conditions: PREEMERGENCE
Method in brief: as §1

[19] = tested on: cocklebur (Xanthium strumarium); assay: Test C; parameters: key: 0 was no effect; 100 was complete control; conditions: PREEMERGENCE
[20] = tested on: ladysthumb smartweed (Polygonum persicaria); assay: Test C; conditions: PREEMERGENCE
[21] = tested on: corn (Zea mays); assay: Test C; conditions: PREEMERGENCE

Cc1cnc(-n2ccc(C(F)(F)F)n2)nc1Cc1cccc(OC(F)(F)F)c1 [Compound 42]
Plant response rating, Velvetleaf ([1]; Rate 35 g/ha): 40
Plant response rating, Velvetleaf ([1]; Rate 70 g/ha): 80
Plant response rating, Velvetleaf ([1]; Rate 140 g/ha): 95
Plant response rating, Purple nutsedge ([2]; Rate 35 g/ha): 0
Plant response rating, Purple nutsedge ([2]; Rate 70 g/ha): 0
Plant response rating, Purple nutsedge ([2]; Rate 140 g/ha): 0
Plant response rating, Johnsongrass ([3]; Rate 35 g/ha): 70
Plant response rating, Johnsongrass ([3]; Rate 70 g/ha): 70
Plant response rating, Johnsongrass ([3]; Rate 140 g/ha): 85
Plant response rating, H. beggarticks ([4]; Rate 35 g/ha): 0
Plant response rating, H. beggarticks ([4]; Rate 140 g/ha): 90
Plant response rating, Barnyardgrass ([5]; Rate 35 g/ha): 5
Plant response rating, Barnyardgrass ([5]; Rate 70 g/ha): 10
Plant response rating, Barnyardgrass ([5]; Rate 140 g/ha): 100
Plant response rating, I. morningglory ([6]; Rate 35 g/ha): 30
Plant response rating, I. morningglory ([6]; Rate 70 g/ha): 70
Plant response rating, I. morningglory ([6]; Rate 140 g/ha): 100
Plant response rating, Purple nutsedge ([7]; Rate 32 g/ha): 20
Plant response rating, Purple nutsedge ([7]; Rate 64 g/ha): 30
Plant response rating, Purple nutsedge ([7]; Rate 125 g/ha): 30
Plant response rating, Purple nutsedge ([7]; Rate 250 g/ha): 30
Plant response rating, Large crabgrass ([8]; Rate 32 g/ha): 50
Plant response rating, Large crabgrass ([8]; Rate 64 g/ha): 90
Plant response rating, Com. groundsel [9]: 90
Plant response rating, Surinam grass ([10]; Rate 32 g/ha): 40
Plant response rating, Surinam grass ([10]; Rate 64 g/ha): 50
Plant response rating, Sandbur ([11]; Rate 64 g/ha): 40
Plant response rating, Sandbur ([11]; Rate 125 g/ha): 70
Plant response rating, Sandbur ([11]; Rate 250 g/ha): 70
Plant response rating, Spanishneedles ([12]; Rate 32 g/ha): 20
Plant response rating, Spanishneedles ([12]; Rate 64 g/ha): 20
Plant response rating, Spanishneedles ([12]; Rate 250 g/ha): 90
Plant response rating, Johnsongrass ([13]; Rate 32 g/ha): 10
Plant response rating, Johnsongrass ([13]; Rate 64 g/ha): 90
Plant response rating, Johnsongrass ([13]; Rate 125 g/ha): 90
Plant response rating, Johnsongrass ([13]; Rate 250 g/ha): 95
Plant response rating, Com. ragweed ([14]; Rate 32 g/ha): 50
Plant response rating, Com. ragweed ([14]; Rate 64 g/ha): 75
Plant response rating, Com. ragweed ([14]; Rate 125 g/ha): 90
Plant response rating, Com. ragweed ([14]; Rate 250 g/ha): 90
Plant response rating, P. morninglory ([15]; Rate 64 g/ha): 30
Plant response rating, P. morninglory ([15]; Rate 125 g/ha): 65
Plant response rating, P. morninglory ([15]; Rate 250 g/ha): 75
Plant response rating, Bermudagrass ([16]; Rate 32 g/ha): 90
Plant response rating, Bermudagrass ([16]; Rate 64 g/ha): 95
Plant response rating, Bermudagrass ([16]; Rate 125 g/ha): 98
Plant response rating, Bermudagrass ([16]; Rate 250 g/ha): 98
Plant response rating, Itchgrass ([17]; Rate 32 g/ha): 35
Plant response rating, Itchgrass ([17]; Rate 64 g/ha): 65
Plant response rating, Itchgrass ([17]; Rate 125 g/ha): 80
Plant response rating, Itchgrass ([17]; Rate 250 g/ha): 70
Plant response rating, Alexandergrass ([18]; Rate 32 g/ha): 20
Plant response rating, Alexandergrass ([18]; Rate 64 g/ha): 40
Plant response rating, Alexandergrass ([18]; Rate 125 g/ha): 90
Plant response rating, Alexandergrass ([18]; Rate 250 g/ha): 90
Plant response rating, Cocklebur ([19]; Rate 35 g/ha): 0
Plant response rating, Cocklebur ([19]; Rate 140 g/ha): 60
Plant response rating, Ladysthumb ([20]; Rate 35 g/ha): 90
Plant response rating, Ladysthumb ([20]; Rate 70 g/ha): 85
Plant response rating, Ladysthumb ([20]; Rate 140 g/ha): 95
Plant response rating, Corn ([21]; Rate 35 g/ha): 5
Plant response rating, Corn ([21]; Rate 70 g/ha): 5
Plant response rating, Corn ([21]; Rate 140 g/ha): 5
